PMC9767854, “Discovery and mechanism studies of a novel ATG4B inhibitor Ebselen by drug repurposing and its anti-colorectal cancer effects in mice” (Cell & Bioscience, 2022)

Legend:
ATG4B [1] = molecular target: T1, ATG4B (Homo sapiens, UniProt Q9Y4P1); assay: FRET-based assay for ATG4B activity; format: biochemical
T1 construct: 6xHis; made in house; host or cells: E. coli BL21(DE3)
T1 sequence (Q9Y4P1 1-393): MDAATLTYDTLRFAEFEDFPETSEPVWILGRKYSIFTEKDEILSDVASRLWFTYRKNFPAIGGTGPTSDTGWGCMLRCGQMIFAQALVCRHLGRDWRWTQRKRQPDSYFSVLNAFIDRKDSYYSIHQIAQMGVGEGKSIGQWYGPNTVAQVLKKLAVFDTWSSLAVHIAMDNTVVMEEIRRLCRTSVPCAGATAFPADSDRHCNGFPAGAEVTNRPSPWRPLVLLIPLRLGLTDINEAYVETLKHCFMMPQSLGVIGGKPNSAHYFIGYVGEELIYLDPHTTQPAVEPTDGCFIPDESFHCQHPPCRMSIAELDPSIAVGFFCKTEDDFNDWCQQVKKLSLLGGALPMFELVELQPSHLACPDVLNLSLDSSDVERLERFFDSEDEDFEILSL
Method: FRET-based assay for ATG4B or ATG4A activity was operated as previously described [5, 17]. Briefly, Recombinant protein ATG4B (0.75 μg/ml) or ATG4A (5 μg/ml) was incubated with compounds in reaction buffer (150 mM NaCl, 20 mM Tris–HCl, pH 8.0, 0.1% CHAPS, 1 mM EDTA) at 37 °C. After 30 min, substrate FRET-GATE-16 (50 μg/ml) was added to a final volume of 50 μl. The reaction was recorded via relative fluorescence intensity ratio of 527 nm/477 nm (RFU). The final inhibition rate of the compound for ATG4 was calculated as: (RFUcompound-RFUNC)/(RFUCON-RFUNC) × 100%; respectively, NC as negative control without inhibitor, CON as control without enzymes.

[2] = molecular target: T2, endogenous ATG4B in HeLa cells (Homo sapiens, UniProt Q9Y4P1); assay: Endogenous ATG4B activity in cells by FRET assay; format: cell-based
T2 construct: endogenous in cells; host or cells: HeLa
Source text: Supplementary file 13578_2022_944_MOESM1_ESM.docx: Additional file 1: Figure S1. Screening of ATG4B inhibitors based on the approved drugs library by FRET assay. […] (D) Candidate compound number and name correspondence table, and IC50 calculation of nine commercially available compounds for ATG4B by FRET assay. Figure S2. […] Figure S3. […] Figure S5. […] Figure S6.

Caspase 3 = molecular target: T3, Caspase 3 (Homo sapiens, UniProt P42574); assay: Caspase activity assay kit, CASP3; format: biochemical; settings: 10 μM
T3 construct: Beyotime (assay kit only) C1115
T3 sequence (P42574 29-175 limits assumed, species assumed): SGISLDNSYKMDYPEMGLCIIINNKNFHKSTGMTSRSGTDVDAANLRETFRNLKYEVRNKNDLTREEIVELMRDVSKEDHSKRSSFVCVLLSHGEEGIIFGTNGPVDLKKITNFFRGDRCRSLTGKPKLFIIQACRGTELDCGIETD
T3 sequence (P42574 176-277 limits assumed, species assumed): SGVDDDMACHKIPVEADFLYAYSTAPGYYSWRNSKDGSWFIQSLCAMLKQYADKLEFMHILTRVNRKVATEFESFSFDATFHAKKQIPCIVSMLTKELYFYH
Method: The enzyme activity of Caspase 1, Caspase 2, Caspase 3, Caspase 4, Caspase 6, Caspase 8 and Caspase 9 were determined via the activity assay kits (C1101, C1107, C1115, C1121, C1135, C1151 and C1157) from Beyotime (Shanghai, China). Then the experimental procedures were performed according to the manufacturer’s protocols.

ATG4B [3] = molecular target: T1, ATG4B; assay: In vitro thermal shift assay, ATG4B WT; format: binding; settings: ATG4B 100 nM, Ebselen 1 μM, compared with DMSO
Method: For in vitro thermal shift assay, recombinant protein ATG4B or C74S mutant (100 nM) was incubated with Ebselen (1 μM) (DMSO as control) in the PCR tubes. The PCR instrument program was set at 25 °C for 10 min, 37 °C to 70 °C for 30 min and followed by cooling tubes for 5 min at room temperature. Then centrifuged at 12,000 rpm for 10 min at 4 °C, soluble fractions were separated from precipitates to be analyzed by SDS-PAGE and immunoblotting.

HCT116 = assay: Autophagy flux by LC3B-II western blot in HCT116; format: cell-based; settings: Ebselen 5 and 10 μM with CQ 40 μM
Method: Fig. 5 Ebselen suppresses autophagy flux via inhibition of ATG4B. A, B HeLa cells were treated with Torin 1 (2 μM) or CQ (40 μM) and detected by western blot. C, D SW620 cells were transduced with sgCon and sgATG4B lentiviruses, respectively. Then cells were treated with CQ (40 μM) and detected by western blot. E, F HCT116 were treated with Ebselen (5 and 10 μM) or CQ (40 μM) and subjected to western blot. G, H SW620 were treated with Ebselen (10 μM) or CQ (40 μM) and western blotting was carried out to detect the protein levels. I, J Immunofluorescence analysis of endogenous LC3B in HCT116 treated with Ebselen (10 μM) or CQ (40 μM). Dots numbers for LC3B were derived from counting at least 20 cells and 5 fields from three independent replicated experiments. Bar = 10 μm. K HCT116 cells were treated with 2 μM Torin 1 in the presence or absence of 10 μM Ebselen for 12 h, then the level ratio of long-lived proteins was measured by flow cytometry
Immunoblotting assay was performed reportedly previously. Commonly, cells were lysed in ice-cold RIPA lysis buffer (Beyotime, P0013B) supplemented with Pierce™ protease inhibitor tablet (ThermoFisher Scientific, A32965). […]

WT HCT116 = assay: Cell viability by CCK-8 assay, WT HCT116; format: cell-based
Method: WT/ATG4B KO HCT116, WT/ATG4B KO SW620 and WT/ATG4B KO RKO cells were seeded in 96-well plate at 1000–1500 cells per well for cell viability assay, and seed in 6-well plate at 1 × 10^5 cells per well for cell number counting. After 12 h, the indicated drugs were added to the medium and cultured for another 96 h. Total viable cell numbers were counted by a cell counter (BioRAD), and cell viability was determined by cell-count-8 assay kit (CCK-8, Bimake, B34304) according to the manufacturer’s protocol.

WT and ATG4B KO HCT116 = assay: Apoptosis detection by cleaved PARP western blot; format: cell-based; settings: low or high concentrations of Ebselen; STS 2 μM; 6 h
[4] = system: ATG4 (mainly ATG4B) in tumors; assay: ATG4 activity in xenografted tumors by FRET assay; format: in vivo, BALB/c-nu/nu mice; settings: SW620 xenografts, 5, 10, 20 mg/kg
Method: FRET-based assay for ATG4B or ATG4A activity was operated as previously described [5, 17]. Briefly, Recombinant protein ATG4B (0.75 μg/ml) or ATG4A (5 μg/ml) was incubated with compounds in reaction buffer (150 mM NaCl, 20 mM Tris–HCl, pH 8.0, 0.1% CHAPS, 1 mM EDTA) at 37 °C. After 30 min, substrate FRET-GATE-16 (50 μg/ml) was added to a final volume of 50 μl. The reaction was recorded via relative fluorescence intensity ratio of 527 nm/477 nm (RFU). The final inhibition rate of the compound for ATG4 was calculated as: (RFUcompound-RFUNC)/(RFUCON-RFUNC) × 100%; respectively, NC as negative control without inhibitor, CON as control without enzymes. For ATG4 activity determination in cells and tissues, cells or separated tumor samples were homogenized in a native lysis buffer (150 mM NaCl, 20 mM Tris–HCl, pH 7.6, 1% TritonX-100, 1 mM EDTA) without protease inhibitors. Then 5 μg total proteins from each sample was added into FRET assay system after clean supernatant proteins were separated. The reaction was recorded via relative fluorescence intensity ratio of 527 nm/477 nm. Finally, the inhibition rates of ATG4B were calculated with the vehicle or CM group as the negative control (ATG4 activity defined as 100%).

O=c1c2ccccc2[se]n1-c1ccccc1 [Ebselen]
inhibition rate against ATG4B WT (ATG4B [1]; Ebselen 0.5 μM, 15-90 min, compared to 2CS): higher inhibition rate | IC50 (ATG4B [1]; recombinant ATG4B 0.75 μg/ml, 30 min preincubation at 37 °C): 0.189 µM | inhibition of endogenous ATG4B in cells [2]: inhibited in a time- and dose-dependent manner | effect on CASP3 activity (Caspase 3): certain inhibition | thermal stability of wild type ATG4B (ATG4B [3]): strikingly improved | autophagic flux (LC3B-II) (HCT116): inhibition of autophagic flux | inhibition of the viability of CRC cell lines (WT HCT116; Fig. 6F): ~ 50% | IC50 (WT HCT116; Homo sapiens, HCT-116, CCK-8, 96 h): 18.9 µM | apoptosis (cleaved PARP) (WT and ATG4B KO HCT116): did not show any increase in apoptosis | activity of ATG4 in tumors [4]: significantly inhibited in a dose-dependent manner
